≈ marks a conversion by molar mass, not a printed value.

Test [1] concerns Staphylococcus aureus V41. In words: MIC, standard agar-dilution assay, Staphylococcus aureus V41. Conditions: Staphylococcus aureus V41; penicillin-resistant strain; agar dilution. Format: cell-based.
In test [2] the test system is Haemophilus influenzae R252. In words: MIC, standard agar-dilution assay, Haemophilus influenzae R252. In kind it is cell-based. Conditions: Haemophilus influenzae R252; ampicillin-resistant strain; agar dilution.
Test [3] deals with Staphylococcus aureus X400. Description: MIC, standard agar-dilution assay, Staphylococcus aureus X400. Conditions: Staphylococcus aureus X400; methicillin-resistant strain; agar dilution. Format: cell-based.
Test [4] relates to Pasteurella multocida 17E. Description: MIC, broth-dilution microtiter test, Pasteurella multocida 17E. In kind it is cell-based. Conditions: Pasteurella multocida 17E; bovine isolate; broth-dilution microtiter. An excerpt: (§1) The MIC's in Table X were obtained using conventional broth-dilution microtiter tests.
The test system of another test is Mycoplasma gallisepticum. In words: MIC, broth-dilution microtiter test, Mycoplasma gallisepticum. Format: cell-based. Conditions: Mycoplasma gallisepticum; broth-dilution microtiter.
Description: as §1

For test [5], the system named is Staphylococcus aureus X1.1. In words: MIC, standard agar-dilution assay, Staphylococcus aureus X1.1. In kind it is cell-based. Conditions: Staphylococcus aureus X1.1; agar dilution.
The next test has as its system Mycoplasma hyopneumoniae. In words: MIC, broth-dilution microtiter test, Mycoplasma hyopneumoniae. Format: cell-based. Conditions: Mycoplasma hyopneumoniae; broth-dilution microtiter.
Description: as §1

In a further test the test system is Mycoplasma hyorhinis. In words: MIC, broth-dilution microtiter test, Mycoplasma hyorhinis. Format: cell-based. Conditions: Mycoplasma hyorhinis; broth-dilution microtiter.
Description: as §1

The test system of test [6] is Streptococcus pyogenes C203. Description: MIC, standard agar-dilution assay, Streptococcus pyogenes C203. Conditions: Streptococcus pyogenes C203; agar dilution. In kind it is cell-based.
Test [7] deals with Staphylococcus epidermidis EPI1. Description: MIC, standard agar-dilution assay, Staphylococcus epidermidis EPI1. In kind it is cell-based. Conditions: Staphylococcus epidermidis EPI1; agar dilution.
In test [8] the test system is Pasteurella hemolytica 22C. Description: MIC, broth-dilution microtiter test, Pasteurella hemolytica 22C. Conditions: Pasteurella hemolytica 22C; broth-dilution microtiter. In kind it is cell-based.
Description: as §1

The test system of test [9] is Haemophilus influenzae Holt. Description: MIC, standard agar-dilution assay, Haemophilus influenzae Holt. Format: cell-based. Conditions: Haemophilus influenzae Holt; ampicillin-sensitive strain; agar dilution.
The subject of test [10] is Pasteurella multocida 60A. Description: MIC, broth-dilution microtiter test, Pasteurella multocida 60A. Format: cell-based. Conditions: Pasteurella multocida 60A; avian isolate; broth-dilution microtiter.
Description: as §1

The next test relates to Streptococcus Group 9960. In words: MIC, standard agar-dilution assay, Streptococcus Group 9960. Conditions: Streptococcus Group 9960; agar dilution. In kind it is cell-based.
Test [11] relates to Staphylococcus epidermidis EPI2. Description: MIC, standard agar-dilution assay, Staphylococcus epidermidis EPI2. Format: cell-based. Conditions: Staphylococcus epidermidis EPI2; agar dilution.
Test [12] has as its system Staphylococcus aureus S13E. Description: MIC, standard agar-dilution assay, Staphylococcus aureus S13E. Format: cell-based. Conditions: Staphylococcus aureus S13E; agar dilution.
For a further test, the system named is Streptococcus bovis 80. In words: MIC, broth-dilution microtiter test, Streptococcus bovis 80. Format: cell-based. Conditions: Streptococcus bovis 80; broth-dilution microtiter.
Description: as §1

In test [13] the test system is Streptococcus pneumoniae Park I. Description: microbe, parasite or virus in culture. Format: cell-based. Conditions: Streptococcus pneumoniae Park I; agar dilution.
For the next test, the system named is Staphylococcus aureus. In words: MIC, broth-dilution microtiter test, Staphylococcus aureus. Format: cell-based. Conditions: broth-dilution microtiter.
Description: as §1

Test [14] has as its system Streptococcus pyogenes C203. In words: In vivo protection of mice experimentally infected with S. pyogenes C203. Conditions: mice, doses given 1 and 4 hours post-infection. The protocol:
The C-20 modified derivatives of this invention have shown in vivo antimicrobial activity against experimentally-induced infections in laboratory animals. When two doses of test compound were administered to mice experimentally infected with S. pyogenes C203, the activity observed was measured as an ED50 value [effective dose in mg/kg to protect 50% of the test animals: see Warren Wick, et al., J. Bacteriol. 81, 233-235 (1961)].

The test system of another test is Mycoplasma synoviae. Description: MIC, broth-dilution microtiter test, Mycoplasma synoviae. Format: cell-based. Conditions: Mycoplasma synoviae; broth-dilution microtiter.
Description: as §1

Test [15] relates to Streptococcus Group D X66. In words: MIC, standard agar-dilution assay, Streptococcus Group D X66. In kind it is cell-based. Conditions: Streptococcus Group D X66; agar dilution.
The subject of a further test is Pasteurella multocida. In words: Subcutaneous treatment of Pasteurella multocida-infected chicks. Conditions: 30 mg/kg × 2, 1 and 4 hours post-challenge. In kind it is in vivo, one-day-old chicks. On the procedure: Many of the C-20 modified derivatives of this invention have also shown in vivo antibacterial activity against infections induced by gram-negative bacteria. Tables XII and XIII summarize the results of tests in which illustrative compounds were evaluated against Pasteurella infection in one-day-old chicks. The compounds were administered parenterally or orally after challenge of the chicks with Pasteurella multocida (0.1 ml of a 10^-4 dilution of a twenty-hour tryptose broth culture of an avian P. multocida given subcutaneously). In these tests, unless indicated otherwise, all non-medicated infected chicks died within 24 hours of Pasteurella challenge. In the tests summarized in Table XII the compounds were administered by subcutaneous injection at a dosage of 30 mg/kg, 1 and 4 hours post-challenge of the chicks with P. multocida. In the test summarized in Table XIII the compounds were administered by gavage at 1 and 5 hours post-challenge of the chicks with P. multocida.

In the case of `CCC1OC(=O)CC(O)C(C)C(OC2OC(C)C(O)C(N(C)C)C2O)C(CCS(=O)(=O)c2ccc(C)cc2)CC(C)C(=O)C=CC(C)=CC1COC1OC(C)C(O)C(OC)C1OC` (centres unmarked) [Compound 46, 20-DH-DO-20-(p-Toluenesulfonyl)desmycosin], the MIC came out at 0.25 µg/mL (≈ 0.274 µM) in test [1]; 8 µg/mL (≈ 8.77 µM) in test [2]; 0.25 µg/mL (≈ 0.274 µM) in test [3]; 12.5 µg/mL (≈ 13.7 µM) in test [4]; 0.19 µg/mL (≈ 0.208 µM) against Mycoplasma gallisepticum; 0.25 µg/mL (≈ 0.274 µM) in test [5]. In addition, the MIC against Mycoplasma hyopneumoniae came to 12.5 µg/mL (≈ 13.7 µM); against Mycoplasma hyorhinis, 50 µg/mL (≈ 54.8 µM); in test [6], 1 µg/mL (≈ 1.1 µM); in test [7], 0.25 µg/mL (≈ 0.274 µM); in [8] it was 12.5 µg/mL (≈ 13.7 µM); in test [9], 4 µg/mL (≈ 4.39 µM). Moreover, the MIC in [10] is 12.5 µg/mL (≈ 13.7 µM); in the test on Streptococcus Group 9960, 8 µg/mL (≈ 8.77 µM); in test [11], 0.12 µg/mL (≈ 0.132 µM); in test [12], 0.25 µg/mL (≈ 0.274 µM); against Streptococcus bovis 80, 6.25 µg/mL (≈ 6.85 µM); in test [13] it was 1 µg/mL (≈ 1.1 µM). For the same molecule, the MIC was 0.39 µg/mL (≈ 0.428 µM) in the test with Staphylococcus aureus, 0.78 µg/mL (≈ 0.855 µM) in the test with Mycoplasma synoviae and 8 µg/mL (≈ 8.77 µM) in [15]. The “ED50, Oral” value in test [14] is listed as > 50 mg/kg × 2. Further, the “ED50, Subcutaneous” value in test [14] is given as 4.2 mg/kg × 2. The “Number of Deaths/Number Treated” value in the test with Pasteurella multocida is recorded as 0/10.
With `CCOC(=O)NN(CCC1CC(C)C(=O)C=CC(C)=CC(COC2OC(C)C(O)C(OC)C2OC)C(CC)OC(=O)CC(O)C(C)C1OC1OC(C)C(O)C(N(C)C)C1O)C(=O)OCC` (centres unmarked) [Compound 45, 20-DH-DO-20-[N-(Ethoxycarbonyl)-N-(ethoxycarbonylamino)]aminodesmycosin], the MIC was 0.5 µg/mL (≈ 0.536 µM) in [1]; 32 µg/mL (≈ 34.3 µM) in [2]; 1 µg/mL (≈ 1.07 µM) in test [3]; 25 µg/mL (≈ 26.8 µM) in test [4]; 0.39 µg/mL (≈ 0.418 µM) with Mycoplasma gallisepticum; 0.5 µg/mL (≈ 0.536 µM) in test [5]. The MIC was 6.25 µg/mL (≈ 6.71 µM) against Mycoplasma hyopneumoniae; “-- (Not active at 50 mcg/ml, the highest level tested)” in the test on Mycoplasma hyorhinis; 2 µg/mL (≈ 2.15 µM) in test [6]; 0.5 µg/mL (≈ 0.536 µM) in [7]; 50 µg/mL (≈ 53.6 µM) in [8]; 32 µg/mL (≈ 34.3 µM) in test [9]. Moreover, the MIC in [10] turned out to be 25 µg/mL (≈ 26.8 µM); in the test with Streptococcus Group 9960, 8 µg/mL (≈ 8.58 µM); in test [11], 0.25 µg/mL (≈ 0.268 µM); in test [12] it was 0.5 µg/mL (≈ 0.536 µM); with Streptococcus bovis 80 it was 12.5 µg/mL (≈ 13.4 µM); in test [13], 0.5 µg/mL (≈ 0.536 µM). For the same molecule, the MIC was found to be 1.56 µg/mL (≈ 1.67 µM) against Staphylococcus aureus, 6.25 µg/mL (≈ 6.71 µM) in the test on Mycoplasma synoviae and 16 µg/mL (≈ 17.2 µM) in test [15]. Also, in [14], the “ED50, Oral” value is on record as > 50 mg/kg × 2. The “ED50, Subcutaneous” value in [14] was 2.1 mg/kg × 2. In addition, the “Number of Deaths/Number Treated” value in the test on Pasteurella multocida is on record as 9/10.
Regarding `CCC1OC(=O)CC(O)C(C)C(OC2OC(C)C(O)C(N(C)C)C2O)C(CCN2C(=O)c3ccccc3C2=O)CC(C)C(=O)C=CC(C)=CC1COC1OC(C)C(O)C(OC)C1OC` (centres unmarked) [Compound 43, 20-DH-DO-20-N-Phthalimidodesmycosin], the MIC was determined as 0.12 µg/mL (≈ 0.133 µM) in test [1]; 32 µg/mL (≈ 35.4 µM) in test [2]; 0.5 µg/mL (≈ 0.554 µM) in test [3]; 25 µg/mL (≈ 27.7 µM) in [4]; 0.78 µg/mL (≈ 0.864 µM) in the test on Mycoplasma gallisepticum; 0.12 µg/mL (≈ 0.133 µM) in test [5]. Besides, the MIC was 12.5 µg/mL (≈ 13.8 µM) in the test with Mycoplasma hyopneumoniae; 50 µg/mL (≈ 55.4 µM) with Mycoplasma hyorhinis; 0.25 µg/mL (≈ 0.277 µM) in test [6]; 0.12 µg/mL (≈ 0.133 µM) in test [7]; 25 µg/mL (≈ 27.7 µM) in [8]; 32 µg/mL (≈ 35.4 µM) in test [9]. Besides, the MIC in [10] stood at 12.5 µg/mL (≈ 13.8 µM); against Streptococcus Group 9960 it was 4 µg/mL (≈ 4.43 µM); in test [11], 0.25 µg/mL (≈ 0.277 µM); in test [12], 0.25 µg/mL (≈ 0.277 µM); in the test with Streptococcus bovis 80, 6.25 µg/mL (≈ 6.92 µM); in test [13], 2 µg/mL (≈ 2.21 µM). Moreover, the MIC against Staphylococcus aureus and in the test with Mycoplasma synoviae was 0.78 µg/mL (≈ 0.864 µM) each time. Further, in test [14], the “ED50, Oral” value is given as 16 mg/kg × 2. Besides, the “ED50, Subcutaneous” value in [14] turned out to be 1.6 mg/kg × 2. For the same molecule, in the test with Pasteurella multocida, the “Number of Deaths/Number Treated” value was 10/10.
